Reference: US11921120B2, “Compositions and methods for identifying and modulating metabolic health” (Duke University, priority 2015, dated 2024)

Assays:
col5a1 = assay: RT-PCR of col5a1 mRNA isoforms after Vivo-Morpholino injection; type: in vivo, zebrafish; details: serial intra-abdominal injection, 80 ng/mg vMO
Protocol: Zebrafish qRT-PCR. RNA extraction, PCR and quantitative RT-PCR (qRT-PCR) was performed as previously described using total RNA from dissected whole VAT tissue of 10 mm zebrafish. (Rawls J F, et al. (2007), PNAS 104(18):7622-7627.) VAT and SAT were dissected from adult Ekkwill strain wild-type zebrafish and used to assess plxnd1 mRNA levels (FIG. 18(B)). Samples contained 5-8 siblings or mutants per group, and qRT-PCR was ran with three biological replicate groups, and reactions ran in triplicate.
Zebrafish were raised under normal conditions until 30-50 days post fertilisation. Fish were anesthetised in 0.67 g/L MS222 and SL measured using an eyepiece reticle. Intra-abdominal injections were then performed on a Nanoject II injector (Drummond) as previously described. (McMenamin S K, et al (2013), Endocrinology 154(4):1476-1487.) At each injection, dosage was adjusted according to body weight (mg) using the following equation: mg=−48.10+7.36*SL+0.68*(SL-8.94)^2. (McMenamin S K, et al (2013), Endocrinology 154(4):1476-1487.) Concentration of individual compounds at injection were (relative to volume/mass of fish): 80 ng/mg col5a1-ile2 vMO (5′-[…]-3′; SEQ ID NO.: 55) or col5a1-e3i3 vMO (5′-[…]-3′; SEQ ID NO.: 56) (Gene-Tools, LLC), 100 μM EDHB (Sigma) and 80 ng/mg EdU. Control animals were injected with either a standard control vMO (5′-[…]-3′; SEQ ID NO.: 57) (Gene-Tools) or 0.1% DMSO.

Type V collagen (Col5) = assay: Col5 immunofluorescence in VAT after vMO injection; type: in vivo, zebrafish; details: endothelial cell and peri-adipocyte locations
Protocol: Immunohistochemistry was performed as previously described (Kanther M, et al. (2011), Gastroenterology 141(1):197-207.) Immunohistochemistry was conducted with antibodies to Type V collagen (Col5) (Rockland, #600-401-107S), Laminin (Sigma, #L-9393), WCL15 (Romano N, et al. (1998), Anatomy and embryology 198(1):31-41; van der Sar A M, et al. (2004), Trends in microbiology 12(10):451-457), and Alexa 568 (Invitrogen, #A-1 1011). Transmission electron microscopy was carried out as described previously. (Flynn E J, et al. (2009), Journal of lipid research 50(8):1641-1652.) Whole 10-12 mm SL fish were processed for paraffin sectioning and Masson's trichrome, combined Masson's and Elastin, periodic acid Schiff (PAS) and Alcian Blue stains. (Sabaliauskas N A, et al. (2006), Methods 39(3):246-254.)
Zebrafish were raised under normal conditions until 30-50 days post fertilisation. Fish were anesthetised in 0.67 g/L MS222 and SL measured using an eyepiece reticle. Intra-abdominal injections were then performed on a Nanoject II injector (Drummond) as previously described. (McMenamin S K, et al (2013), Endocrinology 154(4):1476-1487.) At each injection, dosage was adjusted according to body weight (mg) using the following equation: mg=−48.10+7.36*SL+0.68*(SL-8.94)^2. […]

[1] = Turbidity assay of ECM extracted from VAT (in vitro fibrillogenesis); parameters: species or system zebrafish; details: ECM of sibling VAT, vMO injected before extraction
From the text: To assess fibrillogenesis in plxnd1 mutant VAT, ECM is extracted from zebrafish VAT, and fibril polymerization and gel formation is induced in vitro (FIG. 13). Turbidity assays are used to determine the rate and ultimate extent of fibrillogenesis. ECM was purified from dissected zebrafish VAT (˜100 VATS per tube, triplicate tubes per condition) as previously described. (Uriel S, et al. (2009), Tissue engineering. Part C, Methods 15(3):309-321.) Urea extraction was allowed to proceed for 14-21 days at 4° C. Protein concentration (˜7 mg/ml) was assessed by the Bradford assay (Thermo Scientific). […] To induce fibril polymerization and gel formation, acetic acid was added to a pH of 7. Turbidity assays were conducted as previously described using a Spectronic 20D+ spectrometer (Thermo Scientific). (Wood G C & Keech M K (1960), The Biochemical journal 75:588-598.)

Row | Substance | splicing of col5a1 (RT-PCR, mRNA isoform) (col5a1) | Col5 protein levels (Col5 reactivity) (Type V collagen (Col5)) | in vitro fibrillogenesis [1]
1 | col5a1-e3i3 vMO: Vivo-Morpholino 5′-GAGTTCCTACTTACCTCAAACACCT-3′ (SEQ ID NO.: 56) targeting zebrafish col5a1 exon 3-intron 3 boundary (all phosphorodiamidate morpholino (PMO); Vivo-Morpholino, delivery moiety not given here, further chemistry not fully specified) | skipping of exon 3 | – | –
2 | col5a1-ile2 vMO: Vivo-Morpholino 5′-GAAACATGGATGCTACAGAGAGAGA-3′ (SEQ ID NO.: 55) targeting zebrafish col5a1 intron 1-exon 2 boundary (all phosphorodiamidate morpholino (PMO); Vivo-Morpholino, delivery moiety not given here, further chemistry not fully specified) | inclusion of part of intron 1 | significantly reduced | did not affect
